Data on 3 molecules can be found in patent publication US20180116993A1, “MODULATORS OF FARNESOID X RECEPTOR AND METHODS FOR THE USE THEREOF” (XIAMEN UNIVERSITY, priority 2015, published 2018).

Where two headings read alike, the source gives them in different places. Marks after values point to notes of the source that are not given here.

The test system of assay [1] is human colorectal adenocarcinoma HCT15 cells. The assay is described as follows: MTT cell viability assay, HCT15. Type of assay: cell-based. The following applies: 48 h, read-out: Cell viability as a percentage of the cells treated with DMSO, HCT15; for viability at 20 µM: HCT-15, 20 uM; for viability at 40 µM: HCT-15, 40 uM. An excerpt: (§1) The MTT assay is a colorimetric assay for assessing cell metabolic activity. It is widely used in high-throughput screening of antitumor drugs due to its high sensitivity and economical features. In this example, MTT was used to detect the inhibitory effects of compounds on various cancer cell lines. Cancer cells including human colorectal adenocarcinoma HCT15 cells, RA-resistant human colon cancer HCT116 cells, human cervical carcinoma Hela cells, human hepatoma HepG2 cells and human breast cancer MCF7 cells were cultured in DMEM medium containing 10% fetal bovine serum. 20 uM or 40 uM of compounds were administered to treat cells, cell viability is detected by MTT assay and expressed as a percentage of the cells treated with DMSO (Table 4).
On the technique in general: Tetrazolium assays rely on reduction of a dye to a coloured formazan, in cell work by metabolically active cells.

Assay [2] relates to human breast cancer MCF7 cells. The assay is described as follows: MTT cell viability assay, MCF-7. The format is cell-based. Particulars: 48 h, read-out: Cell viability as a percentage of the cells treated with DMSO, MCF-7.
Text: as §1

For the next assay, the target named is T1, full-length FXR (Homo sapiens, UniProt Q96RI1).
T1 construct: The cells were co-transfected with plasmids encoding full-length FXR and the cognate luciferase reporter EcRE-Luc; expressed in transfected cells; host or cells: COS-7
T1 sequence (Q96RI1 1-486): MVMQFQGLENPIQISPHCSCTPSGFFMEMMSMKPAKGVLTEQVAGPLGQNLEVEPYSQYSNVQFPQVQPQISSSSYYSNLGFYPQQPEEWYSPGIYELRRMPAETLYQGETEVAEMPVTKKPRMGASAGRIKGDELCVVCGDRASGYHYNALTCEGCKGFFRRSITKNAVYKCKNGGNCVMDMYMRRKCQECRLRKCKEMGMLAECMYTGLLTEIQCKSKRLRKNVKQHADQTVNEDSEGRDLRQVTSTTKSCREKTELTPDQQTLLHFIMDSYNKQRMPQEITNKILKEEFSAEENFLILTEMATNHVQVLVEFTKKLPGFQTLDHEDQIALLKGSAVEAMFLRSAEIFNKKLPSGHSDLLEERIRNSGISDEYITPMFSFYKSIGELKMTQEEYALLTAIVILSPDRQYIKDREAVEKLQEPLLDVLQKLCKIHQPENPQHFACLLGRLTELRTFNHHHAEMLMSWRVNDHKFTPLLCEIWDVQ
Briefly: Cell-based FXR transactivation, EcRE luciferase reporter in COS-7 cells. Particulars: Table 2; for Cell-based FXR transactivation Fold changes by 5 μM compound: positive: induction, minus: repression; for EC50: EcRE luciferase reporter. How it is done: COS-7 cells were cotransfected with plasmids encoding full length FXR.
For transient transfection assay, COS-7 cells were maintained in DMEM containing 10% fetal bovine serum and were transiently transfected using Lipofectamine 2000 (Invitrogen). Before 24 h of transfection, 24-well plates were plated. The cells were co-transfected with plasmids encoding full-length FXR and the cognate luciferase reporter EcRE-Luc. Ligands were added 5 hours after transfection. Cells were harvested 24 hours later for the luciferase assays according to the manufacturer's instructions (Dual-Luciferase® Reporter Assay System, Promega). Luciferase activities were normalized to renilla activity co-transfected as an internal control.

Assay [3] concerns RA-resistant human colon cancer HCT116 cells. Briefly: MTT cell viability assay, HCT116. The format is cell-based. The following applies: 48 h, read-out: Cell viability as a percentage of the cells treated with DMSO, HCT116; for viability at 20 µM: HCT-116, 20 uM; for viability at 40 µM: HCT-116, 40 uM.
Text: as §1

Assay [4] relates to human cervical carcinoma Hela cells. Briefly: MTT cell viability assay, Hela. The format is cell-based. Particulars: 48 h, read-out: Cell viability as a percentage of the cells treated with DMSO, Hela.
Text: as §1

For assay [5], the system named is inflammatory cytokines in tissues of db/db mice. Briefly: Inflammatory cytokine mRNA levels in tissues of high-fat diet fed db/db mice (RT-PCR). The format is in vivo, mouse. Particulars: 5 mg/kg. An excerpt:
In this example, we detected the levels of various inflammatory cytokines including iNOS, IFNγ, TGFβ, TNFα, COX2, IL-1β, IL-6, SAA1, MIP-1α and CD36 in liver, kidney, white adipose tissue (WAT) in various mice models, including wild type mice treated with APAP in example 4, high-fat diet fed diabetic and obesity db/db and KK-Ay mice in example 5, high-fat diet fed wild-type mice in Example 5, as well as in primary hepatocytes with LPS induced inflammation, using RT-PCR.

The test system of assay [6] is human hepatoma HepG2 cells. The assay is described as follows: MTT cell viability assay, HepG2. Type of assay: cell-based. Particulars: 48 h, read-out: Cell viability as a percentage of the cells treated with DMSO, HepG2.
Text: as §1

Assay [7] has as its system db/db mice. The assay is described as follows: Hepatic triglyceride, liver histology, serum ALT and ALP in high-fat diet fed db/db mice. Type of assay: in vivo, mouse. Particulars: 10 mg/kg for 10 days. How it is done:
Liver tissues fixed in 4% paraformaldehyde in example 5 were performed for H&E staining by standard procedures. Liver tissues fixed in 4% paraformaldehyde were embedded in optimum cutting temperature compound (OCT), and cryosectioned. Frozen liver sections were stained with 0.3% oil red O according to standard procedures.
The triglyceride levels in liver tissues from mice treated with compounds were analyzed using Tissue triglyceride assay kit (Applygen, Beijing, China).
Alkaline Phosphatase (ALP) is a marker of cholestasis. Cholestasis can be suspected when there is an elevation of ALP enzymes. In fact, greater than 90% of patients with bile stasis will have an elevated alkaline phosphatase. […] The aminotransferase is used to evaluate the presence of hepatitis and may be elevated in cholestasis or with common bile duct obstruction. In this example, 8-10 week age db/db mice were fed with high-fat diet and treated with 10 mg/kg of compounds once daily for 10 days as in Example 5. The activities of serum ALP and ALT were analyzed using ALP kit and ALT kit, respectively (Nanjing Jiancheng Engineering Institute, China).

The subject of assay [8] is db/db mice. Briefly: Serum/blood metabolic parameters in high-fat diet fed db/db mice. The following applies: 10 mg/kg, treat for 10 days, vehicle 527 ± 63. The format is in vivo, mouse. An excerpt: KK-Ay mice (KK/Upj-Ay/J) are animal models with moderate obese and diabetes with insulin resistance. KK-Ay mice develop hyperglycemia, hyperinsulinemia, glucose intolerance and obesity as well as fat accumulation in liver by eight weeks of age. Pancreatic islets are hypertrophied and the β-cells are degranulated. db/db mice (BKS.Cg-Dockr+/+ Lepr^db/Jnju) are animal models of type II diabetes. They have the phenotype of insulin resistance. These model mice were used to detect the functions of our compounds on metabolic diseases.
8-10 weeks age mice were maintained as example 4, and fed with high-fat diet (Research Diets, D12492). Mice were i.p. injected with compounds once daily for 7, 10, 11 or 14 days as indicated in each table. After the last compounds injection, mice were fasted for 6 hours with free access to water, and then sacrificed. Part of each liver was fixed in 4% paraformaldehyde for H&E staining, and other liver tissues were stored in liquid nitrogen for enzyme activity measurement and gene expression analysis by RT-PCR. The serums were collected to measure metabolic parameters, including serum glucose, insulin, cholesterol, free fatty acid (FFA) and triglyceride levels. Serum glucose was analyzed using glucose oxidase method (Applygen, Beijing, China). The blood glucose in Table 11 was measured with Berenger blood glucose test strips (B/BRAUN, German) from blood by cutting mice tail after the 6th injection and following fast for 16 hours. Serum cholesterol and FFA were analyzed using Cholesterol Assay Kit and FFA Assay Kit (Bioassay Systems, USA; Nanjing Jiancheng Bioengineering Institute, China; FFA ELISA, R&D, USA), respectively. Serum triglyceride was analyzed using Triglyceride Assay Kit (Bioassay Systems, USA; WAKO Chemicals Inc., Japan; Applygen, Beijing, China). Liver triglyceride was analyzed using Tissue triglyceride assay kit (Applygen, Beijing, China). Serum insulin levels were measured by the Ultra Sensitive Mouse Insulin ELISA Kit (Crystal Chem. Inc., USA). RNA was isolated using Tissue RNA kit (Omega Bio-Tek, GA). The first strand cDNA were obtained by TAKARA reverse transcription kit. Real-time quantitative PCR were performed on a CFX96™ Real-Time PCR Detection System (Bio-Rad) using SYBR Premix Ex Taq™ (TAKARA). Relative mRNA expression levels were normalized to actin levels. […]

The target of assay [9] is T2, FXR ligand binding domain (LBD) (Homo sapiens, UniProt Q96RI1).
T2 construct: made in house
T2 sequence (Q96RI1 262-486 limits assumed): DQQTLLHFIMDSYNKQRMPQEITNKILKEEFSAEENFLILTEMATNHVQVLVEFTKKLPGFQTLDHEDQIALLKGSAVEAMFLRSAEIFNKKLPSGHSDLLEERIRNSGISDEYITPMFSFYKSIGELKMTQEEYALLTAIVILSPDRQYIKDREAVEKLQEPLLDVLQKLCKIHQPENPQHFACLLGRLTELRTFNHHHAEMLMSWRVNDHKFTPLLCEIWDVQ
The assay is described as follows: AlphaScreen assay: FXR LBD recruitment of coregulator peptide motifs (SRC2-3, SRC1-2). The format is biochemical. Particulars: Table 2. How it is done:
In search of novel ligands for FXR, we used FXR ligand binding domain (LBD) as a bait to screen chemical libraries based on AlphaScreen biochemical assay, which determines the efficacy of small molecules in influencing binding affinity of FXR with coregulator peptides (see e.g., Jin et al., (2013) Nature communications 4, 1937).
The binding of the cofactor peptide motifs to FXR ligand binding domain (LBD) in response to ligands was determined by AlphaScreen assays using a hexahistidine detection kit from Perkins-Elmer. The FXR LBD protein was purified as described previously (see e.g., Jin et al., (2013) Nature communications 4, 1937). The experiments were conducted with approximately 20-40 nM receptor LBD and 20 nM biotinylated cofactor peptides in the presence of 5 μg/ml donor and acceptor beads in a buffer containing 50 mM MOPS, 50 mM NaF, 0.05 mM CHAPS, and 0.1 mg/ml bovine serum albumin, all adjusted to a pH of 7.4.
On the technique in general: Bead proximity is the source of the signal in Alpha formats.

On to `Cc1cc(C(=O)OC2CC3CCC2(C)C3(C)C)ccc1[N+](=O)[O-]` (centres unmarked) [XD-15, 1,7,7-trimethyl-bicyclo[2.2.1]-heptan-2-yl 3-methyl-4-nitro-benzoate], for which the viability (in general, a per cent measure of how many cells are alive, often set against a control) at 20 µM came out at 100 ± 2% in [1]; 81 ± 4% in [2]; 59 ± 3% in assay [3]; 89 ± 6% in assay [4]; 79% in [6]. Further, the viability at 40 µM in assay [1] amounted to 62 ± 3%; in assay [2], 70%; in assay [3] it was 40 ± 3%; in assay [4], 70 ± 3%; in assay [6] it was 72 ± 3%. The “Cell-based FXR transactivation Fold changes by 5 μM compound” value at full-length FXR amounted to 3. Moreover, the EC50 (as a rule, the concentration needed to bring the measured effect to its halfway point) at full-length FXR was in the range of 1000 to 10000 nM. Besides, the “mRNA level of iNOS (fold), Liver tissue” value in assay [5] (vehicle 1.06 ± 0.14) was 0.47 ± 0.21^a fold. The “mRNA level of iNOS (fold), Colon tissue” value in [5] (vehicle 1.12 ± 0.23) was 0.41 ± 0.16^a fold.

In the case of `O=C(OC1CC2CCC1C2)c1ccc([N+](=O)[O-])cc1` (centres unmarked) [XD-25, bicyclo[2.2.1]-heptan-2-yl 4-nitrobenzoate], the viability at 20 µM in assay [1] is 100 ± 4%; in [2], 100 ± 2%; in [3] it was 79 ± 2%; in assay [4] it was 100 ± 2%; in assay [6], 100 ± 5%. For the same molecule, the viability at 40 µM in assay [1] came to 89 ± 4%; in [2], 97 ± 2%; in assay [3], 66 ± 5%; in assay [4], 100 ± 2%; in [6], 90 ± 4%. Besides, the “Cell-based FXR transactivation Fold changes by 5 μM compound” value on full-length FXR is 1.5. The molecule also came in with an EC50 at full-length FXR of less than 1000 nM. In addition, in the assay on db/db mice [7] (vehicle 148 ± 14), the “Hepatic triglyceride (mM/g)” value is 116 ± 5 ^c mM/g. Besides, the “Serum ALT (U/L)” value with db/db mice [7] (vehicle 377 ± 48, Table 15) is given as 124 ± 21 ^a U/L. Further, the “Serum Glucose (mg/dl)” value in the assay on db/db mice [8] is on record as 389 ± 47^a mg/dl.

With `Cc1cc(C(=O)OC2CCC3CCCCC3C2)ccc1N` (centres unmarked) [XD-31, decahydro-naphthalen-2-yl 4-amino-3-methylbenzoate], the viability at 20 µM in [1] was determined as 100 ± 1%; in assay [2], 100 ± 1%; in [3], 63 ± 1%; in assay [4], 74%; in [6], 100 ± 1%. Moreover, the viability at 40 µM in assay [1] is 41 ± 1%; in [2], 100 ± 1%; in assay [3], 59 ± 1%; in assay [4], 42 ± 1%; in [6], 90 ± 1%. Besides, the “Cell-based FXR transactivation Fold changes by 5 μM compound” value on full-length FXR is −5. The EC50 is less than 1000 nM on full-length FXR; less than 1 µM in assay [9] (SRC1-2 peptide, read-out: EC50 (μM) of FXR binding by AlphaScreen assay recruit SRC1-2); less than 1 µM in [9] (SRC2-3 peptide, read-out: EC50 (μM) of FXR binding by AlphaScreen assay recruit SRC2-3). In addition, the “Serum Glucose (mg/dl)” value in the assay with db/db mice [8] is recorded as 326 ± 51^a mg/dl.
